Assay results published in patent US9139585B2 (Merck Sharp & Dohme Corp., priority 2011, dated 2015).
Where two headings read alike, the source gives them in different places.

Key:
hROMK (hKir1.1) = hROMK (hKir1.1) (Homo sapiens (Human), UniProt P48048); assay: Thallium Flux Assay (ROMK channel functional thallium flux, FLIPR-Tetra); format: cell-based
Description: Another ROMK functional assay makes use of the ability of thallium to permeate through open ROMK channels and increase the fluorescence of a dye previously loaded into the cells. Under control conditions, cells loaded with dye and exposed to thallium-containing medium display a time-dependent increase in fluorescence, the rate of which depends on number of functional channels. When cells are incubated in the presence of a channel inhibitor, the increase in fluorescence is attenuated in a concentration-dependent manner, and IC50 values of inhibition by compounds can be accurately determined. This assay has been established with cell lines expressing either human, or rat ROMK channels, and operates in 384-well format.
HEK293 cells stably expressing hROMK (hKir1.1) were grown at 37° C. in a 10% CO2 humidified incubator in complete growth media: Dulbecco's Modified Eagle Medium supplemented with non-essential amino acids, Penicillin/Streptomycin/Glutamine, G418 and FBS. At >80% confluency, the media was aspirated from the flask and the sample was rinsed with 10 ml Calcium/Magnesium-free PBS. […] To dislodge the cell, the side of the flask was gently banged with a hand. The cells were triturated completely and then transferred to 25 ml complete media. The sample was then centrifuged at 1,500 rpm for 6 minutes, followed by resuspension in complete growth media and then cell concentration was determined. […] Under ideal growth conditions and appropriate tissue culture practices, this cell line is stable for 40-45 passages.
FluxOR Kit Components (Invitrogen F10017)
• FluxOR™ Reagent (Component A) • FluxOR™ Assay Buffer (Component B)—10× Concentrate • PowerLoad™ Concentrate (Component C)—100× Concentrate • Probenecid (Component D)—Lyophilized sample is kept at −20° C. Water soluble, 100× after solubilization in 1 ml water. […] Store at 4° C. • Thallium sulfate (Tl2SO4) Concentrate (Component G)—50 mM in water. Store at 4° C. • DMSO (dimethyl sulfoxide, Component H)—1 ml (100%) Reagent Preparation— FluxOR Working Solutions • 1000× FluxOR™ Reagent: Reconstitute a vial of component A in 100 μl DMSO; Mix well; Store 10 μl aliquots at −20° C. • 1× FluxOR™ Assay Buffer: Dilute Component B 10-fold with water; Adjust pH to 7.4 with Hepes/NaOH; Filter and store at 4° C. • Probenecid/Assay Buffer: 100 ml of 1× FluxOR™ Assay Buffer; 1 ml of reconstituted component D; Store at 4° C. • Loading Buffer (per microplate): 10 μl 1000× FluxOR™ Reagent; 100 μl component C; 10 ml Probenecid/Assay Buffer • Compound Buffer (per microplate): 20 ml Probenecid/Assay Buffer; 0.3 mM ouabain (10 mM ouabain in water can be stored in amber bottle/aluminum foil at room temperature);
Test compound • 1× FluxOR™ Chloride-Free Buffer: Prepare 1× working solution in water. Can be stored at room temperature • Stimulant Buffer (prepared at 5× final concentration in 1× FluxOR™ Chloride-Free Buffer): 7.5 mM Thallium sulfate and 0.75 mM Potassium sulfate (to give a final assay concentration of 3 mM Thallium/0.3 mM Potassium). Store at 4° C. when not in use. If kept sterile, this solution is good for months. Assay Protocol—
The ROMK channel functional thallium flux assay is performed in 384 wells, using the FLIPR-Tetra instrument. HEK-hKir1.1 cells are seeded in Poly-D-Lysine microplates and kept in a 37° C.-10% CO2 incubator overnight. On the day of the experiment, the growth media is replaced with the FluxOR™ reagent loading buffer and incubated, protected from light, at ambient temperature (23-25° C.) for 90 min. The loading buffer is replaced with assay buffer±test compound followed by 30 min incubation at ambient temperature, where the Thallium/Potassium stimulant is added to the microplate.
• 1. Seed HEK-hKir1.1 cells (50 μl at 20,000 cells/well) in 384-well PDL coated Microplates • 2. Allow cells to adhere overnight in humidified 37° C./10% CO2 incubator • 3. Completely remove cell growth media from microplate and replace with 25 μl loading buffer • 4.

Kir1.1 (ROMK1) = Kir1.1 (ROMK1) (Homo sapiens (Human), UniProt P48048); assay: Electrophysiology Assay (whole cell voltage clamp, IonWorks Quattro); format: cell-based
Sequence of Kir1.1 (ROMK1) (P48048 whole entry, species assumed): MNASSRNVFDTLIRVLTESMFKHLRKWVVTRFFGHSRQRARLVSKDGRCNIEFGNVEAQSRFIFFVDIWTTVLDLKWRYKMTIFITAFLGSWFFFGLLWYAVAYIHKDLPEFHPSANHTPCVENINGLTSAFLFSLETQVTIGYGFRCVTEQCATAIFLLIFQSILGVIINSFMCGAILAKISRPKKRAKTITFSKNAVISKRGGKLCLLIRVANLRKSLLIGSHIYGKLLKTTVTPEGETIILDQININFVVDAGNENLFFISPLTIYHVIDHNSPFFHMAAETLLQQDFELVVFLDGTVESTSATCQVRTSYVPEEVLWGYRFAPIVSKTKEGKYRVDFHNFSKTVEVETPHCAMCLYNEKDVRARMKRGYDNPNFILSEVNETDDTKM
From the text: Several assays may be used to measure functional inhibition of the ROMK channel by compounds of the instant invention. One assay that can be used is an electrophysiology assay that measures the electrical current that is generated as potassium permeates through the channel.
Block of Kir1.1 (ROMK1) currents was examined by whole cell voltage clamp (Hamill et. al. Pfluegers Archives 391:85-100 (1981)) using the IonWorks® Quattro automated electrophysiology platform (Molecular Devices, Sunnyvale, Calif.). Chinese hamster ovary cells stably expressing Kir1.1 channels were maintained in T-75 flasks in cell culture media in a humidified 10% CO2 incubator at 37° C. Prior to an experiment, Kir1.1 expression was induced by overnight incubation with 1 mM sodium butyrate. On the day of the experiment, cells were dissociated with 2.5 ml of Versene™ (Invitrogen 15040-066) for approximately 6 minutes at 37° C. and suspended in 10 ml of bath solution containing (in mM): 150 NaCl, 10 KCl, 2.7 CaCl2, 0.5 MgCl2, 5 HEPES, pH 7.4. After centrifugation, the cell pellet was resuspended in approximately 4.0 ml of bath solution and placed in the IonWorks® instrument. The intracellular solution consisted of (in mM): 80 K gluconate, 40 KCl, 20 KF, 3.2 MgCl2, 3 EGTA, 5 Hepes, pH 7.4. Electrical access to the cytoplasm was achieved by perforation in 0.13 mg/ml amphotericin B for 4 minutes. Amphotericin B (Sigma A-4888) was prepared as a 40 mg/ml solution in DMSO.
Voltage protocols and current recordings were performed using the IonWorks® HT software/hardware system. Currents were sampled at 1 kHz. No correction for liquid junction potentials was used. The test pulse, consisting of a 100 ms step to 0 mV from a holding potential of −70 mV, followed by a 100 ms voltage ramp from −70 mV to +70 mV, was applied before and after a 6 minutes compound incubation period. Test compounds were prepared by diluting DMSO stock solutions into the bath solution at 3× the final concentration and placed in the instrument in 96-well polypropylene plates. Current amplitudes were measured using the IonWorks® software. To assess compound potency, the fractional block during the voltage step to 0 mV was calculated in Microsoft® Excel (Microsoft, Redmond, Calif.), and dose-response curves were fitted with Igor Pro 4.0 (WaveMetrics, Lake Oswego, Oreg.).

[1] = HEK293 cells stably expressing hROMK (hKir1.1), read-out: Thallium Flux Assay IC50
[2] = Chinese hamster ovary cells stably expressing Kir1.1, block during voltage step to 0 mV, read-out: EP Assay IC50
[3] = read-out: Thallium Flux Assay IC50

Sequence of hROMK (hKir1.1) (P48048 whole entry): as the sequence (P48048 whole entry, species assumed) above

## Cc1c([C@@H](O)CN2C3CCC2C2CCC3N2CC(O)c2ccc(C#N)cn2)ccc2c1COC2=O (single isomer, unassigned) [Example 5]
hROMK (hKir1.1); [1]
  IC50: 0.377 µM
Kir1.1 (ROMK1); [2]
  IC50: 0.197 µM

## COc1cc(C(O)CN2C3CCC2C2CCC3N2C[C@H](O)c2ccc3c(c2C)COC3=O)ncc1C#N (single isomer, unassigned) [Example 6]
hROMK (hKir1.1); [1]
  IC50: 0.026 µM
Kir1.1 (ROMK1); [2]
  IC50: 0.021 µM

## Cc1c([C@@H](O)CN2C3CCC2C2CCC3N2CC(O)c2ccc(C#N)cn2)ccc2c1COC2=O (single isomer, unassigned) [Example 8]
hROMK (hKir1.1); [1]
  IC50: 0.915 µM

## COc1cc(C(O)CN2C3CCC2C2CCC3N2C[C@H](O)c2ccc3c(c2C)COC3=O)ncc1C#N (single isomer, unassigned) [Example 9]
hROMK (hKir1.1); [1]
  IC50: 0.023 µM
Kir1.1 (ROMK1); [2]
  IC50: 0.023 µM

## Cc1c([C@@H](O)CN2CC3CCC2CN3S(=O)(=O)c2ccc(-n3cnnn3)cc2)ccc2c1COC2=O (single isomer, unassigned) [Example 17A]
hROMK (hKir1.1); [1]
  IC50: 0.508 µM
Kir1.1 (ROMK1); [2]
  IC50: 0.17 µM

## Cc1c([C@@H](O)CN2CC3CCC2CN3S(=O)(=O)c2ccc(-n3cnnn3)cc2)ccc2c1COC2=O (single isomer, unassigned) [Example 17B]
hROMK (hKir1.1); [1]
  IC50: 0.997 µM

## Cc1c([C@@H](O)CN2C3COCC2CN(CC(O)c2ccc4c(c2)C[C@H](C)OC4=O)C3)ccc2c1COC2=O (single isomer, unassigned) [Example 23A]
hROMK (hKir1.1); Thallium Flux Assay IC50
  IC50: 0.461 µM
Kir1.1 (ROMK1); [2]
  IC50: 2.46 µM

## Cc1c([C@@H](O)CN2C3COCC2CN(CC(O)c2ccc4c(c2)C[C@H](C)OC4=O)C3)ccc2c1COC2=O (single isomer, unassigned) [Example 23B]
hROMK (hKir1.1); Thallium Flux Assay IC50
  IC50: 0.0405 µM
Kir1.1 (ROMK1)
  IC50: 0.064 µM

## Cc1c([C@@H](O)CN2C3COCC2CN(CC(O)c2ccc4c(c2)C[C@@H](C)OC4=O)C3)ccc2c1COC2=O (single isomer, unassigned) [Example 24A]
hROMK (hKir1.1); Thallium Flux Assay IC50
  IC50: 2.04 µM

## Cc1c([C@@H](O)CN2C3COCC2CN(CC(O)c2ccc4c(c2)C[C@@H](C)OC4=O)C3)ccc2c1COC2=O (single isomer, unassigned) [Example 24B]
hROMK (hKir1.1); Thallium Flux Assay IC50
  IC50: 0.0361 µM
Kir1.1 (ROMK1)
  IC50: 0.066 µM

## Cc1c([C@@H](O)CN2CCN(CC(O)c3ccc(-n4cnnn4)nc3)CC2)ccc2c1COC2=O (single isomer, unassigned) [Example 34A]
hROMK (hKir1.1); [3]
  IC50: 0.296 µM
Kir1.1 (ROMK1); read-out: EP Assay IC50
  IC50: 0.035 µM

## Cc1c([C@@H](O)CN2CCN(CC(O)c3ccc(-n4cnnn4)nc3)CC2)ccc2c1COC2=O (single isomer, unassigned) [Example 34B]
hROMK (hKir1.1); [3]
  IC50: 0.147 µM
Kir1.1 (ROMK1); read-out: EP Assay IC50
  IC50: 0.014 µM

## Cc1cc(-n2cnnn2)ncc1[C@@H](O)CN1CCN(C[C@H](O)c2ccc3c(c2C)COC3=O)CC1 (single isomer, unassigned) [Example 35A]
hROMK (hKir1.1); [1]
  IC50: 0.105 µM
Kir1.1 (ROMK1); [2]
  IC50: 0.029 µM

## Cc1cc(-n2cnnn2)ncc1[C@@H](O)CN1CCN(C[C@H](O)c2ccc3c(c2C)COC3=O)CC1 (single isomer, unassigned) [Example 35B]
hROMK (hKir1.1); [1]
  IC50: 0.278 µM
Kir1.1 (ROMK1); [2]
  IC50: 0.0325 µM

## Cc1nc(-n2cnnn2)ccc1[C@@H](O)CN1CCN(C[C@H](O)c2ccc3c(c2C)COC3=O)CC1 (single isomer, unassigned) [Example 36A]
hROMK (hKir1.1); [1]
  IC50: 0.441 µM
Kir1.1 (ROMK1); [2]
  IC50: 0.055 µM

## Cc1nc(-n2cnnn2)ccc1[C@@H](O)CN1CCN(C[C@H](O)c2ccc3c(c2C)COC3=O)CC1 (single isomer, unassigned) [Example 36B]
hROMK (hKir1.1); [1]
  IC50: 0.171 µM
Kir1.1 (ROMK1); [2]
  IC50: 0.024 µM

## Cc1c([C@@H](O)CN2CCN(C[C@H](O)c3ccc4c(c3)C[C@H](C)OC4=O)CC2)ccc2c1COC2=O (single isomer, unassigned) [Example 37A]
hROMK (hKir1.1); [1]
  IC50: 0.685 µM
Kir1.1 (ROMK1); [2]
  IC50: 0.071 µM

## Cc1c([C@@H](O)CN2CCN(C[C@H](O)c3ccc4c(c3)C[C@H](C)OC4=O)CC2)ccc2c1COC2=O (single isomer, unassigned) [Example 37B]
hROMK (hKir1.1); [1]
  IC50: 0.0485 µM
Kir1.1 (ROMK1); [2]
  IC50: 0.0315 µM

## Cc1c([C@@H](O)CN2CCN(C[C@H](O)c3ccc4c(c3)C[C@@H](C)OC4=O)CC2)ccc2c1COC2=O (single isomer, unassigned) [Example 38A]
hROMK (hKir1.1); [1]
  IC50: 0.0685 µM
Kir1.1 (ROMK1); [2]
  IC50: 0.0175 µM

## Cc1c([C@@H](O)CN2CCN(C[C@H](O)c3ccc4c(c3)C[C@@H](C)OC4=O)CC2)ccc2c1COC2=O (single isomer, unassigned) [Example 38B]
hROMK (hKir1.1); [1]
  IC50: 0.0334 µM
Kir1.1 (ROMK1); [2]
  IC50: 0.029 µM

## Cc1c([C@@H](O)CN2CCN(C[C@@H](O)c3ccc4c(c3)CCS4(=O)=O)CC2)ccc2c1COC2=O (single isomer, unassigned) [Example 43A]
hROMK (hKir1.1); [1]
  IC50: 0.0523 µM
Kir1.1 (ROMK1); [2]
  IC50: 0.095 µM

## Cc1c([C@@H](O)CN2CCN(C[C@@H](O)c3ccc4c(c3)CCS4(=O)=O)CC2)ccc2c1COC2=O (single isomer, unassigned) [Example 43B]
hROMK (hKir1.1); [1]
  IC50: 0.0524 µM

## Cc1c([C@@H](O)CN2CCN(C[C@H](O)c3ccc4c(c3C)COC4=O)C3(CC3)C2)ccc2c1COC2=O [Example 4, 5,5′-(1R,1′R)-2,2′-(4,7-Diazaspiro[2.5]octane-4,7-diyl)bis(1-hydroxyethane-2,1-diyl)bis(4-methylisobenzofuran-1(3H)-one)]
hROMK (hKir1.1); Thallium Flux Assay IC50
  IC50: 0.635 µM

## Cc1c([C@@H](O)CN2C3COCC2CN(CC(O)c2ccc(C#N)cn2)C3)ccc2c1COC2=O (stereo partly drawn) [Example 19, 6-(1-Hydroxy-2-(9-((R)-2-hydroxy-2-(4-methyl-1-oxo-1,3-dihydroisobenzofuran-5-yl)ethyl)-3-oxa-7,9-diazabicyclo[3.3.1]nonan-7-yl)ethyl)nicotinonitrile]
hROMK (hKir1.1); [1]
  IC50: 1.62 µM

## Cc1c([C@@H](O)CN2CCCCN(C[C@H](O)c3ccc4c(c3C)COC4=O)CC2)ccc2c1COC2=O [Example 27, 5,5′-(1R,1′R)-2,2′-(1,4-Diazocane-1,4-diyl)bis(1-hydroxyethane-2,1-diyl)bis(4-methylisobenzofuran-1(3H)-one)]
hROMK (hKir1.1); [1]
  IC50: 0.697 µM
